What follows are compounds tested against T1, Aurora A (Homo sapiens, UniProt O14965) (assay: IC50 determination for inhibitors of Aurora A (96 MTP-ELISA)). Conditions: His4-tagged full-length Aurora A 250 ng/ml, PKB-GSK2 200 nM, ATP 4 μM, 90 min room temperature, read-out: IC50 Aurora A kinase inhibition.
T1 construct: C-terminally Histidine4 (His4)-tagged Aurora A full-length protein; His4 (C)
T1 sequence (O14965 1-403): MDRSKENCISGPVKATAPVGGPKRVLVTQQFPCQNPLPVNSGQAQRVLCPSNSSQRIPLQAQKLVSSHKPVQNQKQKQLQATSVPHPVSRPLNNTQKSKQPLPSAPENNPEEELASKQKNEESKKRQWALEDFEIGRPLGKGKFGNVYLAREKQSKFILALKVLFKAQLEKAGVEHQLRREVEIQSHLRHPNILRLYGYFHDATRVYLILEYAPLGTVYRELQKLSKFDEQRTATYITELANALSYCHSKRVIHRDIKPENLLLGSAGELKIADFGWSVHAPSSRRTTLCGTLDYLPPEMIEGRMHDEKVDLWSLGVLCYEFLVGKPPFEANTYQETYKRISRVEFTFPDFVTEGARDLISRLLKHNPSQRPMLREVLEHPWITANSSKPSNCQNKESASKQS
Format: biochemical
How it was run: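 ELISA read-out: after EDTA stop, phospho-GSK3-alpha (Ser 21) Mab and HRP-linked anti-mouse IgG detected with ABTS at 405/492 nm. The kinase step used His4-tagged full-length Aurora A, 250 ng/ml, 200 nM biotin peptide, ATP 4 μM, pH 7.8, 90 min at RT. Compounds tested at eight concentrations, 100 μM down to 0.00128 μM, for curve-fit IC50.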

IC50 [nM] | SMILES
1 to 100 | CC1(C)C(=O)N(CC(=O)N2CCOCC2)c2cc3[nH]c(-c4n[nH]c5ccccc45)nc3cc21 [Example 40, 2-(1H-Indazol-3-yl)-7,7-dimethyl-5-(2-morpholin-4-yl-2-oxo-ethyl)-5,7-dihydro-3H-imidazo[4,5-f]indol-6-one]
1 to 100 | CC1(C)C(=O)N(CC(=O)Nc2ccccc2)c2cc3[nH]c(-c4n[nH]c5ccccc45)nc3cc21 [Example 43, 2-[2-(1H-Indazol-3-yl)-7,7-dimethyl-6-oxo-6,7-dihydro-3H-imidazo[4,5-f]indol-5-yl]-N-phenyl-acetamide]
1 to 100 | CC1(C)C(=O)N(CC(=O)NO)c2cc3[nH]c(-c4n[nH]c5ccccc45)nc3cc21 [Example 49, N-Hydroxy-2-[2-(1H-indazol-3-yl)-7,7-dimethyl-6-oxo-6,7-dihydro-3H-imidazo[4,5-f]indol-5-yl]-acetamide]
1 to 100 | CC1(C)C(=O)N(CCN)c2cc3[nH]c(-c4n[nH]c5ccccc45)nc3cc21 [Example 52, 5-(2-Amino-ethyl)-2-(1H-indazol-3-yl)-7,7-dimethyl-5,7-dihydro-3H-imidazo[4,5-f]indol-6-one]

From patent US20060142247A1, “Tricyclic heterocycles” (priority 2004, published 2006)
